Reference: patent US12570612B2, “Substituted nitrogen heterocyclic compound and anesthetic effect thereof” (priority 2019, dated 2026)
Where two headings read alike, the source gives them in different places.

Experiments:
Sprague-Dawley rats [1] = experiment: Pharmacological effect and adverse reactions under the equivalent dose (2ED50), Group D compounds; type: in vivo
Excerpt: (§1) Evaluation index: onset time: from the completion of drug injection to the disappearance of forepaw righting reflex in rats; Duration of anesthesia: the time from the disappearance of rat forepaw righting reflex to the recovery of rat forepaw righting reflex; Recovery time of anesthesia: the time from the […] to complete recovery;

SD rats [2] = test system: SD rats
Experimental: (§2) Experimental Methods: Adult male SD rats with body weight ranging from 250 g to 350 g were selected for continuous infusion test.
(§3) Evaluation indexes: the time from the beginning of continuous infusion to the […] of sedation in rats; the time from the cessation of infusion to the restoration of the forepaw turning reflex after 1 hour of continuous infusion; the time from the cessation of infusion to the complete restoration of rats after 1 hour of continuous infusion.

adrenal cortex function [3] = experiment: Adrenocortical function in rats: corticosterone after dexamethasone and ACTH, Group D compounds; settings: for Baseline(S1) corticosterone concentration: before drug
Experimental: (§4) Instruments and Equipment: multi-function ion meter (METTLER TOLEDO, models: SevenMulti), pipetting gun (Eppendorf, specifications: 1000 ul, 200 ul, 100 ul, 10 ul), electronic balance (model: ME215S, manufacturers: Sartorius, Germany), the timer. Experimental Method: Adult male Sprague-Dawley rats (250-300 g) were selected for the experiment (n=8), all the experiment were started in the morning. Place indwelling needles in tail vein of rats and inject dexamethasone (0.5 mg/kg). The first time of blood collection (S1) is in two hours later, and give dexamethasone (0.2 mg/kg). […] All the drugs were administered in a volume of 0.6 ml and at a rate of 0.1 ml/s. 15 min later, exogenous ACTH (25 ug/kg) was injected. Another blood sample was collected after 30 min (S2). The blood samples were left standing at room temperature for 30-60 min, followed by centrifugation at 3500 rpm for 10 min. The supernatant was taken and centrifuged again at 15000 rpm for 5 min before being frozen and stored in a −20° C. refrigerator.
(§5) Evaluation indexes: The concentration of the corticosterone in the supernatant of rats before and after given drugs.

Sprague-Dawley rats [4] = experiment: animal or person; type: in vivo; settings: rats
Excerpt: (§6) Evaluating indicator: The end point of anesthesia: the disappearance of forepaw righting reflex (lorr) was used as the end point of anesthesia; General anesthesia effect: the disappearance of forepaw righting reflex in rats lasting for 30 seconds is taken as the index of general anesthesia effect; Anesthesia recovery index: the recovery of rat forepaw righting reflex was used as the index of anesthesia recovery.

Sprague-Dawley rats [5] = type: in vivo; settings: tail vein
Sprague-Dawley rats [6] = experiment: Pharmacological effect and adverse reactions under the equivalent dose (2ED50), Group C compounds; type: in vivo
Excerpt: as §1

adrenal cortex function [7] = experiment: Adrenocortical function in rats: corticosterone after dexamethasone and ACTH, Group C compounds
Experimental: as §4, with “equipment:” for “Equipment:”, “min(S2).” for “min (S2).”
as §5

SD rats [8] = test system: SD rats; remark: listed apart in the source
Experimental: as §2, §3

Sprague-Dawley rats [9] = type: in vivo; settings: tail vein; remark: listed apart in the source
Sprague-Dawley rats [10] = experiment: animal or person; type: in vivo; settings: rats; remark: listed apart in the source
Excerpt: as §6, with “LORR” for “the disappearance of forepaw righting reflex (lorr)”

[11] = equivalent dose (2 × ED50), number of rats of n = 8
[12] = after 1 hour continuous infusion at 2 times the MIR, SD rats
[13] = continuous infusion 2 x MIR 1 hour, rats affected/rats
[14] = continuous tail vein infusion at 2 times the MIR, SD rats
[15] = drug at 2ED50, 30 min after ACTH 25 ug/kg
[16] = LORR, up and down method, tail vein, class symbols
[17] = equivalent dose (2ED50), number of rats of n = 8

Structure (SMILES): CCOC(OCC)(OCC)C(=O)c1cncn1[C@H](C)c1ccccc1 [Compound D76]
- Righting reflex duration (Sprague-Dawley rats [1]; 2ED50, tail vein, rats, n=8): 1.67 ± 1.32 min
- Sedation duration (Sprague-Dawley rats [1]; 2ED50, tail vein, rats, n=8): 6.44 ± 1.82 min
- Onset time (Sprague-Dawley rats [1]; 2ED50, tail vein, rats, n=8, unit min): <1 min
- Adverse reaction: Convulsions (Sprague-Dawley rats [1]; [11]): 0
- Adverse reaction: Cough, broken-winded (Sprague-Dawley rats [1]; [11]): 0
- Adverse reaction: Euphoria (Sprague-Dawley rats [1]; [11]): 0
- Adverse reaction: Four limbs rigidity (Sprague-Dawley rats [1]; [11]): 2
- Adverse reaction: Red urine (Sprague-Dawley rats [1]; [11]): 8
- Adverse reaction: Slower breathing, Tetany convulsion (Sprague-Dawley rats [1]; [11]): 0
- Adverse reaction: Systemic stiffness, Convulsions, Opisthotonus (Sprague-Dawley rats [1]; [11]): 8
- Adverse reaction: Tongue stretching (Sprague-Dawley rats [1]; [11]): 0
- Adverse reaction: Tremor (Sprague-Dawley rats [1]; [11]): 0
- After the infusion is stopped: Righting reflex recovery time (SD rats [2]; [12]): 15 to 25 min
- Recovery time after stopping infusion (SD rats [2]; [12]): 25 to 40 min
- Types and incidence of adverse reactions: Hindlimb rigidity (SD rats [2]; [13]): rigidity(2/6)
- Types and incidence of adverse reactions: Red urine (SD rats [2]; [13]): Red urine(6/6), Hindlimb
- Sedation onset time (SD rats [2]; [14]): <5 min
- Baseline(S1) corticosterone concentration (adrenal cortex function [3]; Table 17 printed a second time): 153.23 ± 30.91
- Give ACTH 30min later(S2) corticosterone concentration (adrenal cortex function [3]; [15]): 277.88 ± 34.56
- Give ACTH 30min later(S2) corticosterone concentration (adrenal cortex function [3]; drug at 2ED50, 30 min after ACTH, Table 17 printed a second time): 277.88 ± 34.56
- Baseline(S1) corticosterone concentration (adrenal cortex function [3]; two hours after dexamethasone 0.5 mg/kg): 153.23 ± 30.91
- ED50 (Sprague-Dawley rats [4]; [16]): ++ (++ indicates that the measured ED50 is in the range of 0.50-1.00 mg/kg (excluding 0.50 mg/kg, including 1.00 mg/kg))
- Approximate therapeutic index (Sprague-Dawley rats [4]): >31.8
- Minimal lethal dose (Sprague-Dawley rats [5]): >11.5 mg/kg

Structure (SMILES): CCOCC(=O)c1ccnn1[C@H](C)c1ccccc1 [Compound C2]
- Righting reflex duration (Sprague-Dawley rats [6]; 2ED50, tail vein, rats, n=8): 1.78 ± 0.53 min
- Sedation duration (Sprague-Dawley rats [6]; 2ED50, tail vein, rats, n=8): 5.38 ± 0.78 min
- Onset time (Sprague-Dawley rats [6]; 2ED50, tail vein, rats, n=8, unit s): <30 s
- Adverse reaction: Convulsions (Sprague-Dawley rats [6]; [17]): 0
- Adverse reaction: Cough, broken-winded (Sprague-Dawley rats [6]; [17]): 0
- Adverse reaction: Euphoria (Sprague-Dawley rats [6]; [17]): 0
- Adverse reaction: Red urine (Sprague-Dawley rats [6]; [17]): 8
- Adverse reaction: Slower breathing, Tetany convulsion (Sprague-Dawley rats [6]; [17]): 0
- Adverse reaction: Systemic stiffness, Convulsions, Opisthotonus (Sprague-Dawley rats [6]; [17]): 0
- Adverse reaction: Tongue stretching (Sprague-Dawley rats [6]; [17]): 2
- Adverse reaction: Tremor (Sprague-Dawley rats [6]; [17]): 0
- Adverse reaction: the four limbs rigidity (Sprague-Dawley rats [6]; [17]): 0
- Give ACTH 30min later(S2) corticosterone concentration (adrenal cortex function [7]; [15]): 242.12 ± 46.22
- Baseline(S1) corticosterone concentration (adrenal cortex function [7]; two hours after dexamethasone 0.5 mg/kg, before drug): 163.22 ± 35.11
- After the infusion is stopped: Righting reflex recovery time (SD rats [8]; [12]): 10 to 15 min
- Recovery time after stopping infusion (SD rats [8]; [12]): 20 to 30 min
- Types and incidence of adverse reactions: Red urine (SD rats [8]; [13]): 6/6
- Types and incidence of adverse reactions: Tongue stretching (SD rats [8]; [13]): Tongue stretching(4/6)
- Types and incidence of adverse reactions: Tremor (SD rats [8]; [13]): 3/6
- Sedation onset time (SD rats [8]; [14]): <5 min
- Minimal lethal dose (Sprague-Dawley rats [9]): >12.4 mg/kg
- ED50 (Sprague-Dawley rats [10]; [16]): ++++ (++++ indicates that the measured ED50 is in the range of 2.00-10.00 mg/kg (excluding 2.00 mg/kg, including 6.00 mg/kg))
- Approximate therapeutic index (Sprague-Dawley rats [10]): >2.5
